From patent US20040142821A1, “Pesticide composition comprising malononitrile compounds” (priority 2001, published 2004)

How the values were obtained:
[1] = test system: Musca domestics; test: Pesticidal test against Musca domestics, treated filter paper with sucrose bait (Test Example 5); type: in vivo; conditions: 500 ppm test liquid (Formulation Example 5), 0.7 ml on filter paper, ten female adults, after 24 hours
Experimental: Ten female adults of Musca domestics (house fly) were set free in the polyethylene cup, which was then kept covered. After 24 hours, their survival was examined to determine the mortality.

[2] = test system: German cockroach; test: Pesticidal test against German cockroach, treated filter paper with sucrose bait (Test Example 6); type: in vivo; conditions: Blattella germanica, 144 h; 500 ppm test liquid (Formulation Example 5), 0.7 ml on filter paper; two male adults; after 6 days
Source text: Two male adults of German cockroach (Blattalla germanica) were set free in the polyethylene cup, which was then kept covered. After 6 days, their survival was examined to determine the mortality.

[3] = test system: Cullex pipiens pallens; test: whole plant or invertebrate; conditions: 24 h
Experimental: In 100 ml of ion-exchanged water, the test liquid had been prepared as described above, was added dropwise in an amount of 0.7 ml (the concentration of active ingredient was 3.5 ppm). Twenty final-instar larvae of Cullex pipiens pallens (common mosquito) were set free in the solution. After 1 days, their survival was examined to determine the mortality.

Question: How did the mortality at 500 ppm [1] turn out when C=CCCC(C#N)(C#N)Cc1ccc(OC(F)(F)F)cc1 [Compound 15, 2-(3-butenyl)-2-(4-(trifluoromethoxy)benzyl)malononitrile] was run?
Answer: 100%

Question: And the mortality at 500 ppm [2]?
Answer: 100%

Question: What about the mortality at 3.5 µg/mL [3] of the same compound?
Answer: 100%

Question: C=CCC(C#N)(C#N)Cc1cccc(Cl)c1 [Compound 17, 2-allyl-2-(3-chlorobenzyl)malononitrile] was tested. Which mortality at 500 ppm [1] did it give?
Answer: 100%

Question: What about the mortality at 500 ppm [2] of the same compound?
Answer: 100%

Question: And the mortality at 3.5 µg/mL [3]?
Answer: 100%

Question: How did the mortality at 500 ppm [1] turn out when C=CCC(C#N)(C#N)C(C)c1ccc(OC(F)(F)F)cc1 (centres unmarked) [Compound 30, 2-allyl-2-(1-(4-(trifluoromethoxy)phenyl)ethyl)malononitrile] was run?
Answer: 100%

Question: And the mortality at 500 ppm [2]?
Answer: 100%

Question: What about the mortality at 3.5 µg/mL [3] of the same compound?
Answer: 100%

Question: How did the mortality at 500 ppm [1] turn out when C=CCC(C#N)(C#N)C(CCl)c1ccc(OC(F)(F)F)cc1 (centres unmarked) [Compound 31, 2-allyl-2-(1-(4-(trifluoromethoxy)phenyl)-2-chloroethyl)malononitrile] was run?
Answer: 100%

Question: And the mortality at 500 ppm [2]?
Answer: 100%

Question: And the mortality at 3.5 µg/mL [3]?
Answer: 100%

Question: What does the source list for C=CCCC(C#N)(C#N)C(C=C)c1ccc(OC(F)(F)F)cc1 (centres unmarked) [Compound 32, 2-(3-butenyl)-2-(1-(4-(trifluoromethoxy)phenyl)-2-propenyl)malononitrile]?
Answer: mortality at 500 ppm [1]: 100%; mortality at 500 ppm [2]: 100%; mortality at 3.5 µg/mL [3]: 100%

Question: With C=CCC(C#N)(C#N)C(C=C)c1ccc(OC(F)(F)F)cc1 (centres unmarked) [Compound 33, 2-allyl-2-(1-(4-(trifluoromethoxy)phenyl)-2-propenyl)malononitrile] as the compound, how does the mortality at 500 ppm [1] read?
Answer: 100%

Question: What about the mortality at 500 ppm [2] of the same compound?
Answer: 100%

Question: And the mortality at 3.5 µg/mL [3]?
Answer: 100%

Question: How did the mortality at 500 ppm [1] turn out when C=CCCC(C#N)(C#N)Cc1ccc(OC(F)F)cc1 [Compound 36, 2-(3-butenyl)-2-(4-(difluoromethoxy)benzyl)malononitrile] was run?
Answer: 100%

Question: And the mortality at 500 ppm [2]?
Answer: 100%

Question: And the mortality at 3.5 µg/mL [3]?
Answer: 100%

Question: How did the mortality at 500 ppm [1] turn out when C=CCC(C#N)(C#N)C(OC)c1ccc(OC(F)(F)F)cc1 (stereo not drawn) [Compound 39, 2-allyl-2-(4-(trifluoromethoxy)-α-methoxybenzyl)malononitrile] was run?
Answer: 100%

Question: And the mortality at 500 ppm [2]?
Answer: 100%

Question: And the mortality at 3.5 µg/mL [3]?
Answer: 100%

Question: What does the source list for C=CCC(C#N)(C#N)Cc1ccc(SC(F)(F)F)cc1 [Compound 41, 2-allyl-2-(4-(trifluoromethylthio)benzyl)malononitrile]?
Answer: mortality at 500 ppm [1]: 100%; mortality at 500 ppm [2]: 100%; mortality at 3.5 µg/mL [3]: 100%

Question: For C=CCCC(C#N)(C#N)Cc1ccc(SC(F)(F)F)cc1 [Compound 42, 2-(3-butenyl)-2-(4-(trifluoromethylthio)benzyl)malononitrile], which mortality at 500 ppm [1] is on record?
Answer: 100%

Question: What about the mortality at 500 ppm [2] of the same compound?
Answer: 100%

Question: And the mortality at 3.5 µg/mL [3]?
Answer: 100%

Question: C=CCC(C#N)(C#N)C(OC)c1ccc(SC(F)(F)F)cc1 (stereo not drawn) [Compound 43, 2-allyl-2-(4-(trifluoromethylthio)-α-methoxybenzyl)malononitrile] was tested. Which mortality at 500 ppm [1] did it give?
Answer: 100%

Question: And the mortality at 500 ppm [2]?
Answer: 100%

Question: And the mortality at 3.5 µg/mL [3]?
Answer: 100%

Question: How did the mortality at 500 ppm [1] turn out when CC=CCC(C#N)(C#N)Cc1ccc(SC(F)(F)F)cc1 [Compound 46, 2-(2-butenyl)-2-(4-(trifluoromethylthio)benzyl)malononitrile] was run?
Answer: 100%

Question: And the mortality at 500 ppm [2]?
Answer: 100%

Question: And the mortality at 3.5 µg/mL [3]?
Answer: 100%

Question: Which mortality at 500 ppm [1] does the source give for C=CC(C)C(C#N)(C#N)Cc1ccc(SC(F)(F)F)cc1 (centres unmarked) [Compound 47, 2-(1-methyl-2-propenyl)-2-(4-(trifluoromethylthio)benzyl)malononitrile] here?
Answer: 100%

Question: What about the mortality at 500 ppm [2] of the same compound?
Answer: 100%

Question: And the mortality at 3.5 µg/mL [3]?
Answer: 100%

Question: For C=CCCC(C#N)(C#N)Cc1ccc(C(F)(F)F)cc1 [Compound 52, 2-(3-butenyl)-2-(4-(trifluoromethyl)benzyl)malononitrile], which mortality at 500 ppm [1] is on record?
Answer: 100%

Question: And the mortality at 500 ppm [2]?
Answer: 100%

Question: What about the mortality at 3.5 µg/mL [3] of the same compound?
Answer: 100%

Question: Which results are given for C=CCC(C#N)(C#N)C(C#N)c1ccc(OC(F)(F)F)cc1 (stereo not drawn) [Compound 55, 2-allyl-2-(4-(trifluoromethoxy)-α-cyanobenzyl)malononitrile]?
Answer: mortality at 500 ppm [1]: 100%; mortality at 500 ppm [2]: 100%; mortality at 3.5 µg/mL [3]: 100%

Question: C=CCC(C#N)(C#N)C(C#N)c1ccc(SC(F)(F)F)cc1 (stereo not drawn) [Compound 56, 2-allyl-2-(4-(trifluoromethylthio)-α-cyanobenzyl)malononitrile] was tested. Which mortality at 500 ppm [1] did it give?
Answer: 100%

Question: And the mortality at 500 ppm [2]?
Answer: 100%

Question: What about the mortality at 3.5 µg/mL [3] of the same compound?
Answer: 100%

Question: With C=CCC(C#N)(C#N)Cc1ccc(C(F)(F)F)cc1C(F)(F)F [Compound 57, 2-allyl-2-(2,4-bis(trifluoromethyl)benzyl)malononitrile] as the compound, how does the mortality at 500 ppm [1] read?
Answer: 100%

Question: And the mortality at 500 ppm [2]?
Answer: 100%

Question: And the mortality at 3.5 µg/mL [3]?
Answer: 100%

Question: How did the mortality at 500 ppm [1] turn out when C=CCC(C#N)(C#N)Cc1ccc(C(F)(F)F)cc1Cl [Compound 58, 2-allyl-2-(2-chloro-4-(trifluoromethyl)benzyl)malononitrile] was run?
Answer: 100%

Question: And the mortality at 500 ppm [2]?
Answer: 100%

Question: And the mortality at 3.5 µg/mL [3]?
Answer: 100%

Question: Which results are given for CC#CCC(C#N)(C#N)Cc1ccc(OC(F)(F)F)cc1 [Compound 59, 2-(2-butynyl)-2-(4-(trifluoromethoxy)benzyl)malononitrile]?
Answer: mortality at 500 ppm [1]: 100%; mortality at 500 ppm [2]: 100%; mortality at 3.5 µg/mL [3]: 100%

Question: How did the mortality at 500 ppm [1] turn out when C=CCCC(C#N)(C#N)Cc1ccc(C(F)(F)F)cc1Cl [Compound 60, 2-(3-butenyl)-2-(2-chloro-4-(trifluoromethyl)benzyl)malononitrile] was run?
Answer: 100%

Question: What about the mortality at 500 ppm [2] of the same compound?
Answer: 100%

Question: And the mortality at 3.5 µg/mL [3]?
Answer: 100%

Question: C=CCC(C#N)(C#N)Cc1c(Cl)cc(C(F)(F)F)cc1Cl [Compound 64, 2-allyl-2-(2,6-dichloro-4-(trifluoromethyl)benzyl)malononitrile] was tested. Which mortality at 500 ppm [1] did it give?
Answer: 100%

Question: What about the mortality at 500 ppm [2] of the same compound?
Answer: 100%

Question: And the mortality at 3.5 µg/mL [3]?
Answer: 100%

Question: Which mortality at 500 ppm [1] does the source give for CC(C#N)(C#N)Cc1ccc(Cl)cc1 [Compound 68, 2-(4-chlorobenzyl)-2-methylmalononitrile] here?
Answer: 100%

Question: What about the mortality at 500 ppm [2] of the same compound?
Answer: 100%

Question: And the mortality at 3.5 µg/mL [3]?
Answer: 100%

Question: Which mortality at 500 ppm [1] does the source give for C=CCC(C#N)(C#N)Cc1ccc(C(F)(F)F)c(F)c1 [Compound 69, 2-allyl-2-(3-fluoro-4-(trifluoromethyl)benzyl)malononitrile] here?
Answer: 100%

Question: What about the mortality at 500 ppm [2] of the same compound?
Answer: 100%

Question: What about the mortality at 3.5 µg/mL [3] of the same compound?
Answer: 100%

Question: With C=CCCCC(C#N)(C#N)Cc1ccc(C(F)(F)F)cc1 [Compound 79, 2-(4-pentenyl)-2-(4-(trifluoromethyl)benzyl)malononitrile] as the compound, how does the mortality at 500 ppm [1] read?
Answer: 100%

Question: And the mortality at 500 ppm [2]?
Answer: 100%

Question: And the mortality at 3.5 µg/mL [3]?
Answer: 100%

Question: Which results are given for C=CCC(C#N)(C#N)C(OCC)c1ccc(OC(F)(F)F)cc1 (stereo not drawn) [Compound 82, 2-allyl-2-(4-(trifluoromethoxy)-α-ethoxybenzyl)malononitrile]?
Answer: mortality at 500 ppm [1]: 100%; mortality at 3.5 µg/mL [3]: 100%

Question: How did the mortality at 500 ppm [1] turn out when C=CCC(C#N)(C#N)C(OC)c1ccc(Cl)cc1 (stereo not drawn) [Compound 84, 2-allyl-2-(4-chloro-α-methoxybenzyl)malononitrile] was run?
Answer: 100%

Question: And the mortality at 500 ppm [2]?
Answer: 100%

Question: What about the mortality at 3.5 µg/mL [3] of the same compound?
Answer: 100%

Question: C=CCC(C#N)(C#N)Cc1cccc(OC(F)(F)F)c1 [Compound 89, 2-allyl-2-(3-(trifluoromethoxy)benzyl)malononitrile] was tested. Which mortality at 500 ppm [1] did it give?
Answer: 100%

Question: What about the mortality at 500 ppm [2] of the same compound?
Answer: 100%

Question: And the mortality at 3.5 µg/mL [3]?
Answer: 100%

Question: With C=CCC(C#N)(C#N)C(C#N)c1ccc(C)cc1 (stereo not drawn) [Compound 92, 2-allyl-2-(4-methyl-α-cyanobenzyl)malononitrile] as the compound, how does the mortality at 500 ppm [1] read?
Answer: 100%

Question: What about the mortality at 3.5 µg/mL [3] of the same compound?
Answer: 100%

Question: C=CCC(C#N)(C#N)Cc1ccc(CC)cc1 [Compound 101, 2-allyl-2-(4-ethylbenzyl)malononitrile] was tested. Which mortality at 500 ppm [1] did it give?
Answer: 100%

Question: What about the mortality at 3.5 µg/mL [3] of the same compound?
Answer: 100%

Question: Which mortality at 500 ppm [1] does the source give for C=CCC(C#N)(C#N)Cc1ccc(C(C)C)cc1 [Compound 102, 2-allyl-2-(4-isopropylbenzyl)malononitrile] here?
Answer: 100%

Question: And the mortality at 500 ppm [2]?
Answer: 100%

Question: And the mortality at 3.5 µg/mL [3]?
Answer: 100%

Question: For CC(C)CCC(C#N)(C#N)Cc1ccc(C(F)(F)F)cc1 [Compound 105, 2-(3-methylbutyl)-2-(4-(trifluoromethyl)benzyl)malononitrile], which mortality at 500 ppm [1] is on record?
Answer: 100%

Question: And the mortality at 3.5 µg/mL [3]?
Answer: 100%

Question: Which results are given for CC=CCC(C#N)(C#N)Cc1ccc(C(F)(F)F)cc1 [Compound 107, 2-(2-butenyl)-2-(4-(trifluoromethyl)benzyl)malononitrile]?
Answer: mortality at 500 ppm [1]: 100%; mortality at 3.5 µg/mL [3]: 100%

Question: For C=C(C)CC(C#N)(C#N)Cc1ccc(C(F)(F)F)cc1 [Compound 108, 2-(2-methyl-2-propenyl)-2-(4-(trifluoromethyl)benzyl)malononitrile], which mortality at 500 ppm [1] is on record?
Answer: 100%

Question: What about the mortality at 3.5 µg/mL [3] of the same compound?
Answer: 100%

Question: Which mortality at 500 ppm [1] does the source give for CCC(C)C(C#N)(C#N)Cc1ccc(C(F)(F)F)cc1 (centres unmarked) [Compound 111, 2-(1-methylpropyl)-2-(4-(trifluoromethyl)benzyl)malononitrile] here?
Answer: 100%

Question: And the mortality at 3.5 µg/mL [3]?
Answer: 100%

Question: C=CCC(C#N)(C#N)Cc1cccc(F)c1F [Compound 114, 2-allyl-2-(2,3-difluorobenzyl)malononitrile] was tested. Which mortality at 500 ppm [1] did it give?
Answer: 100%

Question: What about the mortality at 500 ppm [2] of the same compound?
Answer: 100%

Question: How did the mortality at 500 ppm [1] turn out when C=CCC(C#N)(C#N)Cc1ccc(OC(C)CC)cc1 (centres unmarked) [Compound 115, 2-allyl-2-(4-(2-butyloxy)benzyl)malononitrile] was run?
Answer: 100%

Question: What about the mortality at 3.5 µg/mL [3] of the same compound?
Answer: 100%

Question: How did the mortality at 500 ppm [2] turn out when C=CCC(C#N)(C#N)Cc1ccc(Oc2cccc(C)c2)cc1 [Compound 119, 2-allyl-2-(4-(m-tolyloxy)benzyl)malononitrile] was run?
Answer: 100%

Question: How did the mortality at 500 ppm [1] turn out when C=CCC(C#N)(C#N)Cc1c(F)cc(F)cc1F [Compound 120, 2-allyl-2-(2,4,6-trifluorobenzyl)malononitrile] was run?
Answer: 100%

Question: And the mortality at 500 ppm [2]?
Answer: 100%

Question: Which results are given for C=CCC(C#N)(C#N)Cc1ccc(Oc2ccc(Cl)cc2)cc1 [Compound 121, 2-allyl-2-(4-(p-chlorophenoxy)benzyl)malononitrile]?
Answer: mortality at 500 ppm [2]: 100%; mortality at 3.5 µg/mL [3]: 100%
